Test results reported in patent US20220098162A1, “APHTHYLAMINE COMPOUND AND BIOLOGICALLY ACCEPTABLE SALT THEREOF, PREPARATION METHOD THEREFOR, AND APPLICATION THEREOF” (Henan Radiomedical Science and Technology Co., Ltd, priority 2019, published 2022).
Structures can show the parent of a compound that is named as a salt.

Tests used:
Format in all cases: cell-based
MDA-MB-231 cells = experiment: MTT experiment, MDA-MB-231 cells; conditions: Homo sapiens; MDA-MB-231, MTT, 48 hours, hydrochloride salt
Method: (§1) Experiment on Inducing Apoptosis of Breast Cancer, Colon Cancer and Lung Cancer Cancer Cells
(§2) Method: collecting logarithmic growth phase MDA-MB-231, MCF-7, HCT-116, PC9-AR, PC9-GR, PC9 cells, counting, adjusting the cell suspension concentration to 50000 cells/mL, adding 100 ul cell suspension to each well, that is, 5000 cells per well, and adding the above cancer cells to the hydrochloride of the naphthylamine compounds of 1a and 3a of the invention, to enable the final concentration of the hydrochloride of the naphthylamine compound in the system to be several gradients of 0.1, 0.3, 1, 3, 10, 30, 100, 300 (μmol/L), and continuing culturing for 48 hours; after treating with drug, adding 50 μL of Thiazole Blue reagent (1 mg/mL) to each well, incubating at 37° C. for 4 hours, shaking the plate to discard the liquid in the well, draining the water, absorbing the remaining liquid with filter paper, and then adding 100 μL of dimethyl sulfoxide; reacting on a horizontal shaker for 7-8 minutes, until the blue-violet crystals are completely dissolved; reading the value with a microplate reader, measuring the OD value at the absorption wavelength of 570 nm, recording the result. […]

HCT-116 cells = experiment: MTT experiment, HCT-116 cells; conditions: Homo sapiens; HCT-116, MTT, 48 hours, hydrochloride salt
Method: as §1, §2

PC9AR cells = experiment: MTT experiment, PC9-AR cells; conditions: 48 hours, hydrochloride salt
Method: as §1, §2

PC9GR cells = experiment: MTT experiment, PC9-GR cells; conditions: 48 hours, hydrochloride salt
Method: as §1, §2

PC9 cells = experiment: MTT experiment, PC9 cells; conditions: Homo sapiens, PC-9, 48 hours, hydrochloride salt
Method: as §1, §2

MCF-7 cells = experiment: MTT experiment, MCF-7 cells; conditions: Homo sapiens, MCF7; MCF-7, MTT, 48 hours, hydrochloride salt
Method: as §1, §2

p-STAT3 in HCC827 cells = experiment: Westernblot experiment, STAT3 and p-STAT3 in IL-6 stimulated HCC827 cells; conditions: HCC827, 10, 30, 100 and 300 μmol/L, IL-6 30 ng/mL
Method: (1) Taking HCC827 cells in logarithmic growth phase, digesting them with trypsin, preparing a single cell suspension with a density of 300,000 cells/mL with RPMI-1640 medium containing 10% fetal bovine serum, and adding 2 mL of cell suspension to each well to inoculate a 6-well cell culture plate.
(2) Incubating in a 37° C., 5% CO2 incubator. After the cells adhere to the wall, adding the experimental group with different concentrations of the drug SMY002 (3a), and the concentration gradients are: 10, 30, 100 and 300 μmol/L; adding 30 μL of interleukin-6 (IL-6) one hour later at a concentration of […] to stimulate the cells, and the final concentration of interleukin-6 (IL-6) is 30 ng/mL.
(3) After continuing to culture for 0.5 h, lysing the cells with RIPA lysis buffer to collect proteins. […]
(4) Transferring the cell supernatant to a clean centrifuge tube. Dividing the cell supernatant into two parts: taking 5 μL and add it to a 1.5 mL centrifuge tube for BCA to measure the protein content, then adding 45 μL of 1× phosphate buffered saline (PBS) and mixing well for later use; quantitatively taking 140 μL of the remaining cell supernatant, adding 35 μL of 5×SDS loading buffer, boiling in boiling water for 8 minutes after mixing, and storing in a refrigerator at −20° C. after centrifugation. […]

| IC50 (MDA-MB-231 cells) [nM] | IC50 (HCT-116 cells) [nM] | IC50 (PC9AR cells) [nM] | IC50 (PC9GR cells) [nM] | IC50 (PC9 cells) [nM] | IC50 (MCF-7 cells) [nM] | Structure (SMILES) | amount of STAT3 protein expressed (Westernblot) (p-STAT3 in HCC827 cells) | expression of p-STAT3 (Westernblot) (p-STAT3 in HCC827 cells) |
| --- | --- | --- | --- | --- | --- | --- | --- | --- |
| 14900 | 25400 | 38500 | 30400 | 26600 |  | Nc1ccc(OC(=O)c2ccc(OCCN3CCCCC3)cc2)c2ccccc12 [SMY001 (1a), 4-(2-(piperidin-1-yl)ethoxy) benzoic acid-4-amino-1-naphthyl ester dihydrochloride] |  |  |
| 1810 | 1980 | 655 | 472 | 473 | 2040 | Nc1ccc(OCc2ccc(OCCN3CCCCC3)cc2)c2ccccc12 [SMY002 (3a), 4-(4-(2-(piperidin-1-yl)ethoxy)benzyloxy)-1-naphthylamine dihydrochloride] | remains unchanged | significantly inhibits |
